Measurements reported in patent publication US6063776A, “Sitostanol formulation with emulsifier to reduce cholesterol absorption and method for preparing and use of same” (Washington University, priority 1999, dated 2000).
Like-named read-outs stand apart in the source and are kept apart here.

Columns and labels:
[1] = Solubility in artificial bile of sonicated, lyophilized sitostanol mixtures (Example 6); format: physicochemical; conditions: compared with lecithin and lysolecithin / SSL
Method: Solubility in artificial bile was determined by adding 8 mM sodium taurocholate 5 mM PC 0.15 M NaCl 15 mM sodium phosphate pH 7.4 (artificial bile), rotating for 30 min. at 37° and centrifuging at 17,000×g for 1 min. The pellet was washed once and the combined sups and pellet were counted separately.

[2] = Solubility of sitostanol mixtures dried from chloroform in artificial bile (Example 1); format: physicochemical; conditions: artificial bile (8 mM sodium taurocholate, 5 mM soy lecithin, pH 7.4), 37° C, 30 min; mixture dried from chloroform
Method: An aliquot, containing 1.2 μMol of sitostanol, was transferred to an evacuation tube and the solvent was removed under reduced pressure (<50 mtorr). The experiment was initiated by adding 0.5 mL of artificial bile (8 mM sodium taurocholate containing 5 mM soy lecithin and 0.15 mM NaCl, pH 7.4) followed by rotation at 8 rev/min for 30 min at 37° C. The tube was then centrifuged for 1 minute at 17,000×g to precipitate any solid material, the supernatant was removed and added to scintillation fluid for measurement of radioactivity, and the percent of radioactivity in the artificial bile supernatant was calculated.

[3] = Solubility in artificial bile with variable amounts of lecithin, repeated extraction (Example 3); format: physicochemical; conditions: tenfold excess of lecithin
Method: Sitostanol, tracer amount of [^3 H]sitostanol, and other compounds that are found in the gut or that are commonly used as food additives were mixed together in chloroform solution at a fixed mole ratio. An aliquot, containing 1.2 μMol of sitostanol, was transferred to an evacuation tube and the solvent was removed under reduced pressure (<50 mtorr). The experiment was initiated by adding 0.5 mL of artificial bile (8 mM sodium taurocholate containing 5 mM soy lecithin and […], pH 7.4) followed by rotation at 8 rev/min for 30 min at 37° C. The tube was then centrifuged for 1 minute at 17,000×g to precipitate any solid material, the supernatant was removed and added to scintillation fluid for measurement of radioactivity, and the percent of radioactivity in the artificial bile supernatant was calculated. Table I below summarizes the solubility of sitostanol mixtures in the presence of artificial bile salt.
The effectiveness of variable amounts of lecithin to solubilize sitostanol was studied as in Example #1, except that after rotation at 37° for 30 min residual sedimenting sitostanol was re-extracted twice by vortexing with 0.5 ml additional artificial bile and recentrifuging. The following results were obtained:
When [^3 H]phosphatidylcholine was added as a tracer instead of [^3 H]sitostanol, the amount of lecithin solubilized was 93.3%. […]

serum cholesterol = conditions: cited from earlier work
[4] = system: hypocholesterolemic activity; conditions: rat, in vivo; cited from earlier work
[5] = in vivo; cited from earlier work
cholesterol absorption = conditions: cited from earlier work

Compound: CCCCCCCCCCCCCCCCCC(=O)OC(C)C(=O)OC(C)C(=O)[O-].[Na+] (centres unmarked) [SSL, Sodium stearoyl-2-lactylate]
- effectiveness in solubilizing sitostanol [1]: as effective as lecithin and lysolecithin

Compound: CC[C@H](CC[C@@H](C)[C@H]1CC[C@H]2[C@@H]3CC[C@H]4C[C@@H](O)CC[C@]4(C)[C@H]3CC[C@]12C)C(C)C [Sitostanol, sitostanol]
- Soluble Sterol [2]: 2.3%
- sitostanol remaining insoluble [3]: 32%
- reduction of serum cholesterol (serum cholesterol; 1.5 g/day, severe hypercholesterolemia): 15%
- effect in moderate hypercholesterolemia (serum cholesterol; 3 g/day): no effect
- potency relative to other phytosterols [4]: more potent than other phytosterols
- absorption [5]: non-absorbable

Compound: CC[C@H](CC[C@@H](C)[C@H]1CC[C@H]2[C@@H]3CC=C4C[C@@H](O)CC[C@]4(C)[C@H]3CC[C@]12C)C(C)C [sitosterol]
- decrease of serum cholesterol levels (serum cholesterol; 3-9 g/day powdered sitosterol): 12%
- reduction of serum cholesterol (serum cholesterol; 5-18 g sitosterol/day): 16-20%

Compound: neomycin
- effect on cholesterol absorption (cholesterol absorption; given chronically (cholestyramine) or orally (neomycin)): reduces cholesterol absorption effectively

Compound: sitostanol ester
- less effective at reducing cholesterol absorption (cholesterol absorption; ester dissolved in dietary fat compared to the unesterified sterol, humans): 21%
